This is an account of results in patent US8952169B2 (Genentech, Inc., priority 2012, dated 2015).

The target in one assay is T1, hNav1.7 (Homo sapiens (Human), UniProt Q15858). Briefly: Tritiated aryl sulfonamide binding to membranes from cells expressing hNav1.7 and the β1 subunit (competitive binding). To be noted: membranes with hNav1.7 and β1 subunit; [3H]compound displacement, 18 h, room temperature; read-out: NaV1.7 395 Memb Binding (IC50). On the procedure: Tritiated Aryl Sulfonamide Binding to Membranes Isolated from Cells that Heterologously Express hNav1.7 and the β1 Subunit
T1 sequence (Q15858 whole entry, looked up): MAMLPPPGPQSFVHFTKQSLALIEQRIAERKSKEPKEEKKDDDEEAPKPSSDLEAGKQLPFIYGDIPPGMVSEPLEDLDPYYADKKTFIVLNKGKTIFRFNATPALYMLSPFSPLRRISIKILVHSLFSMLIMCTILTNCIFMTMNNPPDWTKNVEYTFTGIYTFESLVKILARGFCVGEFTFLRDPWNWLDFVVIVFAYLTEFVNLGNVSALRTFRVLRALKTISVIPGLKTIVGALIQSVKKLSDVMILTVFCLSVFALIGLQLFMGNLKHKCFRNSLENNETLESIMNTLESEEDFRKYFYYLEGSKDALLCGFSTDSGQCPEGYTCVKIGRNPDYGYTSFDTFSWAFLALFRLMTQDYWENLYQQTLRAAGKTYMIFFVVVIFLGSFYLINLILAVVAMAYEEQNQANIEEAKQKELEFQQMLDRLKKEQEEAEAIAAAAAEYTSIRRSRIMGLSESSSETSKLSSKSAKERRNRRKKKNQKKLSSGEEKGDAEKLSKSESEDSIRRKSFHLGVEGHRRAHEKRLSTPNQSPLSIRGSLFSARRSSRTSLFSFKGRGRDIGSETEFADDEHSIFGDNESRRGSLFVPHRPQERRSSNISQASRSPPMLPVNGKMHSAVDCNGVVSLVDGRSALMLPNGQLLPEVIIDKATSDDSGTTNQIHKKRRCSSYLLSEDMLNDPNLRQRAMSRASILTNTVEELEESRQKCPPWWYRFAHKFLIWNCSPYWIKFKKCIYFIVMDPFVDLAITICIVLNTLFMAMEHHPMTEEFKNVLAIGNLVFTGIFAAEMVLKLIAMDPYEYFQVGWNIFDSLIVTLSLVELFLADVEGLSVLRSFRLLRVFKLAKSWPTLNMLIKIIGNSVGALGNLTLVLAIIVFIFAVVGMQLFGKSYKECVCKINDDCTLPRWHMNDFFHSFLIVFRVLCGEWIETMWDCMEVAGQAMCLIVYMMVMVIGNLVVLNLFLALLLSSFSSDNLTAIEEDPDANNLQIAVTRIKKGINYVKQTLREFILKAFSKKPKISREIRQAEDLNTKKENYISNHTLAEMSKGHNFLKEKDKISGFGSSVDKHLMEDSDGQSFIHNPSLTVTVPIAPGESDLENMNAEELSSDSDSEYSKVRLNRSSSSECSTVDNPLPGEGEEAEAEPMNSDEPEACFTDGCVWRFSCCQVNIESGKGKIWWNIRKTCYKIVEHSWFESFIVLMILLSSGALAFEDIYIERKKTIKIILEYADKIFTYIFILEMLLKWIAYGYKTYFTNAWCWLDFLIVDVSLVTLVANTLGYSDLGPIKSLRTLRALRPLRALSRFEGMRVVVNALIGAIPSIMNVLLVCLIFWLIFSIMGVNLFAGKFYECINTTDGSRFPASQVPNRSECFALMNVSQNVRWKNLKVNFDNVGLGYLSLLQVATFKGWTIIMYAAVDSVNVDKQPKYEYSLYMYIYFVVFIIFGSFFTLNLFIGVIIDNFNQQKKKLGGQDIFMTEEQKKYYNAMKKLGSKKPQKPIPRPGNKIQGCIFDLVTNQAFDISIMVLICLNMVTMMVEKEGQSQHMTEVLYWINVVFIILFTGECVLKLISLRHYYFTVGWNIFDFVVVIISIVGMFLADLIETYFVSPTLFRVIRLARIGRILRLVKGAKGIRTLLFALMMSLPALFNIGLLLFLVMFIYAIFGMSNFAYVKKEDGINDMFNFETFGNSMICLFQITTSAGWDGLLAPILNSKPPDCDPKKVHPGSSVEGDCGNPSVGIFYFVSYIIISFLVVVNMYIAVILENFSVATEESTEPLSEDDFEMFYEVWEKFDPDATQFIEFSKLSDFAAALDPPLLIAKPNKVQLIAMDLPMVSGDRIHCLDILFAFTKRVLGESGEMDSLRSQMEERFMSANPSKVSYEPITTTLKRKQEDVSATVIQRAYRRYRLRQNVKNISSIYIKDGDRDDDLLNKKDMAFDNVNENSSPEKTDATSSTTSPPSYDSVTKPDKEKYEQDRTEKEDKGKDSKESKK
T1 sequence (Q07699 whole entry partner, looked up): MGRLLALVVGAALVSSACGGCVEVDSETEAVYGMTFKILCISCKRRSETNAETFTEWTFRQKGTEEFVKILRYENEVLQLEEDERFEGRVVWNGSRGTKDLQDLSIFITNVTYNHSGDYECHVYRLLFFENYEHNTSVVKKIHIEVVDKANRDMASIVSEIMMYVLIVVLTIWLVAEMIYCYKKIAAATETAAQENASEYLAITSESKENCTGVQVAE
Preparation of membranes containing recombinantly expressed sodium channels: Frozen recombinant cell pellets were thawed on ice and diluted to 4 times the cell pellet weight with ice cold 50 mM Tris HCl, pH 7.4 buffer. The cell suspensions were homogenized on ice using a motorized glass dounce homogeniser. Homogenates were further diluted 8.4 times with ice cold 50 mM Tris HCl, pH 7.4 buffer and then centrifuged at 200×g at 4° C. for 15 min. The supernatants were collected and centrifuged at 10000×g at 4° C. for 50 min. The pellets were then re-suspended in 100 mM NaCl, 20 mM Tris HCl, pH 7.4 buffer containing 1% v/v protease inhibitors (Calbiochem) and re-homogenized on ice. The homogenized membranes were then processed through a syringe equipped with a 26 gauge needle. Protein concentrations were determined by Bradford Assay and the membranes were stored at −80° C.
Radioligand Binding Studies: Saturation experiments. A representative compound of formula (I) was tritiated. Three tritiums were incorporated in place of methyl hydrogens to generate [^3H]compound. Binding of this radioligand was preformed in 5 mL borosilicate glass test tubes at room temperature. Binding was initiated by adding membranes to increasing concentrations of [^3H]compound in 100 mM NaCl, 20 mM Tris HCl, pH 7.4 buffer containing 0.01% w/v bovine serum albumin (BSA) for 18 h. Non-specific binding was determined in the presence of 1 μM unlabelled compound. After 18 h, the reactants were filtered through GF/C glass fiber filters presoaked in 0.5% w/v polyethylene imine. […] [^3H]compound bound to filters was quantified by liquid scintillation counting.
Competitive binding experiments. Binding reactions were preformed in 96-well polypropylene plates at room temperature for 18 h. In 360 μL, membranes were incubated with 100 μM [^3H]compound and increasing concentrations of Test Compound. Non-specific binding was defined in the presence of 1 μM unlabelled compound. Reactions were transferred and filtered through 96-well glass fiber/C filter plates presoaked with 0.5% polyethylene imine. The filtered reactions were washed 5 times with 200 L ice cold buffer containing 0.25% BSA. Bound radioactivity was determined by liquid scintillation counting.
Data Analysis: For saturation experiments, non-specific binding was subtracted from total binding to provide specific binding and these values were recalculated in terms of pmol ligand bound per mg protein. Saturation curves were constructed and dissociation constants were calculated using the single site ligand binding model: Beq=(Bmax*X)/(X+Kd), where Beq is the amount of ligand bound at equilibrium, Bmax is the maximum receptor density, Kd is the dissociation constant for the ligand, and X is the free ligand concentration.
Turning to `CS(=O)(=O)NC(=O)c1cc(Cl)c(OCC23CC4CC(CC(C4)C2)C3)c(F)c1F`, the IC50 turned out to be 190 nM.
As to `O=C(NS(=O)(=O)N1CCC1)c1cc(C2CC2)c(OCC2CC=C(C3CC3)CC2)cc1F` (stereo not drawn), the half-inhibitory concentration (IC50) was 6 nM.
Regarding `CCc1cc(C(=O)NS(=O)(=O)N2CCC2)c(F)cc1OCC12CC3CC(CC(C3)C1)C2`, the IC50 was 5 nM.
With `CC1(COc2cc(F)c(C(=O)NS(=O)(=O)N3CCC3)cc2C2CC2)CCC(C(F)(F)F)CC1` (stereo not drawn) [Example 427, N-(azetidin-1-ylsulfonyl)-5-cyclopropyl-2-fluoro-4-[[1-methyl-4-(trifluoromethyl)cyclohexyl]methoxy]benzamide], the IC50 was 3 nM.
As to `CC1(OCc2cc(F)c(C(=O)NS(C)(=O)=O)cc2Cl)CCC(F)(F)CC1` [Example 305], the IC50 came to 310 nM.
As for `CN(C)S(=O)(=O)NC(=O)c1cc(Cl)c(OCC23CC4CC(CC(F)(C4)C2)C3)cc1F` [Example 89, 5-chloro-N-(dimethylsulfamoyl)-2-fluoro-4-[(3-fluoro-1-adamantyl)methoxy]benzamide], the half-inhibitory concentration (IC50) was 234 nM.
On the same count and under the same terms, the same measure for `CN(C)S(=O)(=O)NC(=O)c1cc(Cl)c(COc2ccc3c(c2)OC(C)(C)CC3)cc1F`: 190 nM.
In the case of `CC1(COc2cc(F)c(C(=O)NS(=O)(=O)N3CC(F)C3)cc2C2CC2)CCCCC1` [Example 447, 5-cyclopropyl-2-fluoro-N-((3-fluoroazetidin-1-yl)sulfonyl)-4-((1-methylcyclohexyl)methoxy)benzamide], the IC50 worked out at 4.2 nM.
For `CS(=O)(=O)NC(=O)c1cc(Cl)c(COc2ccc3c(c2)CCCC3)cc1F`, the 50% inhibitory concentration (IC50) came out at 86 nM.
Consider `CN(C)S(=O)(=O)NC(=O)c1cc(Cl)c(OCCC23CC4CC(CC(C4)C2)C3)cc1F`, for which the IC50 amounted to 166 nM.
On the same count and under the same terms, the same measure for `CCCCCC12CCC(COc3cc(F)c(C(=O)NS(=O)(=O)N(C)C)cc3Cl)(CC1)CC2`: 33 nM.
Regarding `CC(C)[C@H]1CC[C@H](Oc2cc(F)c(C(=O)NS(C)(=O)=O)cc2Cl)CC1`, the IC50 was 57 nM.
As for `CS(=O)(=O)NC(=O)c1cc(Cl)c(OCC2CCC3(CCC3)CC2)cc1F`, the IC50 amounted to 17 nM.
As for `CCS(=O)(=O)NC(=O)c1cc(C2CC2)c(OCC23CC4CC(CC(C4)C2)C3)cc1F`, the IC50 was 1 nM.
In the case of `CNS(=O)(=O)NC(=O)c1cc(C2CC2)c(OCC23CC4CC(CC(C4)C2)C3)cc1F`, the IC50 amounted to 2.1 nM.
For the compound `CS(=O)(=O)NC(=O)c1ccc(OCC23CC4CC(CC(O)(C4)C2)C3)c(Cl)c1` [Example 24], the IC50 stood at 10000 nM.
Still for that read-out and setting: the same measure for `CS(=O)(=O)NC(=O)c1cc(C2CC2)c(OCC2CCC3(CC2)CC3)cc1F`: 2 nM; for “5-cyclopropyl-4-((4,4-difluorocyclohexyl)methoxy)-2-fluoro-N-((3-fluoroazetidin-1-yl)sulfonyl)benzamide [Example 212]”: 2300 nM; for `COC12CC3CC(CC(COc4cc(F)c(C(=O)NS(C)(=O)=O)cc4C4CC4)(C3)C1)C2`: 12 nM.
Same read-out and setting: with `CN(C)S(=O)(=O)NC(=O)c1cc(Cl)c(OCC2CCCCC2)cc1F` the figure was 322 nM; with `CC(C)OCCS(=O)(=O)NC(=O)c1cc(C2CC2)c(OCC23CC4CC(CC(C4)C2)C3)cc1F`, 40 nM.
On the same count and under the same terms, the same measure for `COCCS(=O)(=O)NC(=O)c1cc(C2CC2)c(OCC2C3CC4CC(C3)CC2C4)cc1F` (stereo not drawn): 5 nM.
As for `O=C(NS(=O)(=O)C1CC1)c1cc(Cl)c(OCC2CC3C(C2)C3(F)F)cc1F` (stereo not drawn) [Example 322], the 50% inhibitory concentration (IC50) worked out at 81 nM.
As for `CNS(=O)(=O)NC(=O)c1cnc(OCC23CC4CC(CC(C4)C2)C3)c(C2CC2)c1` [Example 178], the IC50 was 250 nM.
As for `CN(C)S(=O)(=O)NC(=O)c1cc(Cl)c(OC2C3CC4CC2CC(Cl)(C4)C3)cc1F` (stereo not drawn), the half-inhibitory concentration (IC50) is 419 nM.
Still for that read-out and setting: the same measure for `CS(=O)(=O)NC(=O)c1cc(Cl)c(OCCC2CCCC2)cc1F`: 140 nM.
For `O=C(NS(=O)(=O)N1CCC1)c1cc(C2CC2)c(OCC2CCCC2)cc1F`, the IC50 worked out at 36 nM.
Turning to `CS(=O)(=O)NC(=O)c1cc(Cl)c(OC[C@H]2CC[C@@H](C(F)(F)F)CC2)cc1F`, the IC50 was 86 nM.
As for `CNS(=O)(=O)NC(=O)c1cc(C2CC2)c(OCC2(C#N)C3CC4CC(C3)CC2C4)cc1F` (stereo not drawn), the half-inhibitory concentration (IC50) stood at 43 nM.
On the same count and under the same terms, the same measure for `O=C(NS(=O)(=O)N1CCC1)c1cc(C2CC2)c(OC[C@H]2CC[C@H](C(F)(F)F)CC2)cc1F` [Example 436, N-(azetidin-1-ylsulfonyl)-5-cyclopropyl-2-fluoro-4-(((1r,4r)-4-(trifluoromethyl)cyclohexyl)methoxy)benzamide]: 9 nM; for `COCCCS(=O)(=O)NC(=O)c1cc(C2CC2)c(OCC23CC4CC(CC(C4)C2)C3)cc1F`: 22 nM; for `O=C(NS(=O)(=O)N1CCC1)c1cc(Cl)c(OCC2(C(F)(F)F)CCCC2)cc1F`: 30 nM.
For “5-chloro-N—(N,N-dimethylsulfamoyl)-2-fluoro-4-((4-pentylbicyclo[2.2.2]octan-1-yl)-methoxy)benzamide [Example 91]”, the IC50 is 1210 nM.
The same measure, in the same setting: with `O=C(NS(=O)(=O)C1CC1)c1cc(Cl)c(OCC2CC3CC3C2)cc1F` (stereo not drawn) [Example 266] the figure was 49 nM; with `CNS(=O)(=O)NC(=O)c1cc(Cl)c(OCC2(C#N)C3CC4CC(C3)CC2C4)cc1F` (stereo not drawn), 880 nM; with `O=C(NS(=O)(=O)N1CCC1)c1cc(C2(O)COC2)c(OCC23CC4CC(CC(C4)C2)C3)cc1F`, 70 nM.
On to `CN(C)S(=O)(=O)NC(=O)c1cc(Cl)c(OC2CCC3(CCCCC3)CC2)cc1F`, for which the IC50 worked out at 281 nM.
The same measure, in the same setting: with `CC1(COc2cc(F)c(C(=O)NS(=O)(=O)N3CCC3)cc2C2CC2)CCCCC1` the figure was 3 nM; with `CS(=O)(=O)NC(=O)c1ccc(CNC23CC4CC(CC(C4)C2)C3)c(Cl)c1` [Example 17], 10000 nM; with `C/C=C/c1cc(C(=O)NS(=O)(=O)N2CCC2)c(F)cc1OCC12CC3CC(CC(C3)C1)C2` [Example 399], 6 nM.
With `CS(=O)(=O)NC(=O)c1cc(Cl)c(OCC23CC4CC(C2)C(F)(F)C(C4)C3)cc1F`, the IC50 came out at 27 nM.
The same measure, in the same setting: with `CS(=O)(=O)NC(=O)c1cc(Cl)c(COC23CC4CC(CC(C4)C2)C3)cc1F` the figure was 16 nM; with `CS(=O)(=O)NC(=O)c1ccc(OCC23CC4CC(CC(C4)C2)C3)c(C(F)(F)F)c1` [Example 62], 58 nM; with `CC1(C)CCCC(Oc2cc(F)c(C(=O)NS(C)(=O)=O)cc2Cl)C1` (stereo not drawn), 93 nM.
Turning to `CN(C)S(=O)(=O)NC(=O)c1cc(Cl)c(COc2ccc3c(c2)CCC(C)(C)C3)cc1F`, the IC50 is 86 nM.
As for `CS(=O)(=O)NC(=O)c1cc(Cl)c(OCC2CC3CCC2C3)cc1F` (stereo not drawn), the IC50 turned out to be 80 nM.
For the compound `CN(C)S(=O)(=O)NC(=O)c1cc(Cl)c(OCCC2CCCC2)cc1F`, the IC50 worked out at 542 nM.
As for `CS(=O)(=O)NC(=O)c1cc(Cl)c(OCC2(C#N)C3CC4CC(C3)CC2C4)cc1F` (stereo not drawn), the IC50 amounted to 310 nM.
On to `CCS(=O)(=O)NC(=O)c1cc(C2CC2)c(OCC2CN(C(c3ccccc3)c3ccccc3)C2)cc1F` [Example 441, 4-((1-benzhydrylazetidin-3-yl)methoxy)-5-cyclopropyl-N-(ethylsulfonyl)-2-fluorobenzamide], for which the half-maximal inhibitory concentration (IC50) turned out to be 10 nM.
Regarding `CS(=O)(=O)NC(=O)c1cc(F)c(OCCC2CC2)cc1F`, the IC50 was 6860 nM.
With `CN(C)S(=O)(=O)NC(=O)c1cc(Cl)c(O[C@@H]2C[C@@H]3CC[C@@]2(C)C3(C)C)cc1F`, the IC50 is 230 nM.
For `CS(=O)(=O)NC(=O)c1cc(Cl)c(OC2CCC3(CCCC3)CC2)cc1F` [Example 133], the half-inhibitory concentration (IC50) worked out at 125 nM.
Regarding `CNS(=O)(=O)NC(=O)c1cc(C2CC2)c(OCC2(C(F)(F)F)CCCCC2)cc1F`, the IC50 is 20 nM.

Staying with this assay, now noted: read-out: NaV1.7 395 Memb Binding (IC50).
For “5-cyclopropyl-4-((4,4-difluorocyclohexyl)methoxy)-2-fluoro-N-(N-methylsulfamoyl)benzamide [Example 214]”, the IC50 turned out to be 900 nM.

The target of the next assay is T1, hNav1.7. The experiment in a line: Patch voltage clamp electrophysiology (PatchXpress), HEK-293 cells, inactivated state block. In kind it is cell-based. Conditions: HEK-293 cells, β1 coexpressed; inactivated state, holding −60 mV; read-out: EP_PX 293 hNav1.7 (IC50).
With `CS(=O)(=O)NC(=O)c1cc(Cl)c(OCC23CC4CC(CC(C4)C2)C3)c(F)c1F`, the half-inhibitory concentration (IC50) amounted to 1500 nM.
Same read-out and setting: with `O=C(NS(=O)(=O)N1CCC1)c1cc(C2CC2)c(OCC2CC=C(C3CC3)CC2)cc1F` (stereo not drawn) the figure was 10 nM.
Take `CCc1cc(C(=O)NS(=O)(=O)N2CCC2)c(F)cc1OCC12CC3CC(CC(C3)C1)C2`: the IC50 turned out to be 3.3 nM.
Still for that read-out and setting: with `CC1(COc2cc(F)c(C(=O)NS(=O)(=O)N3CCC3)cc2C2CC2)CCC(C(F)(F)F)CC1` (stereo not drawn) [Example 427, N-(azetidin-1-ylsulfonyl)-5-cyclopropyl-2-fluoro-4-[[1-methyl-4-(trifluoromethyl)cyclohexyl]methoxy]benzamide] the figure was 130 nM.
With `CC1(OCc2cc(F)c(C(=O)NS(C)(=O)=O)cc2Cl)CCC(F)(F)CC1` [Example 305], the half-inhibitory concentration (IC50) was 1400 nM.
Still for that read-out and setting: with “4-(adamantan-1-ylmethoxy)-3-chloro-N-(methylsulfonyl)benzamide [Example 12]” the figure was 6.9 nM.
